Data from ChEMBL document CHEMBL5653615 (J Biol Chem, 2013).

How the values were obtained:
[1] = target: T1, Aurora kinase C (Homo sapiens) (UniProt Q9UQB9); assay: Inhibition of human Aurora C at 18.6 nM by HotSpot assay relative to control
T1 sequence (whole entry): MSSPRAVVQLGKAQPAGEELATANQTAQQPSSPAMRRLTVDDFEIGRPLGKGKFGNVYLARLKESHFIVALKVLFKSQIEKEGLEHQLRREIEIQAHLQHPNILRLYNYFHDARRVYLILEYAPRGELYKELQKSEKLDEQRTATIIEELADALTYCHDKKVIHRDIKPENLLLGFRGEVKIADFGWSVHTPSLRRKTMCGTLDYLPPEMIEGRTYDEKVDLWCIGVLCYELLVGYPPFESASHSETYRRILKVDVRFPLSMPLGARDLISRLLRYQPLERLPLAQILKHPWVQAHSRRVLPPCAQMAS

[2] = target: Death-associated protein kinase 2 (Homo sapiens) (UniProt Q9UIK4); assay: Inhibition of human DAPK2 at 18.6 nM by HotSpot assay relative to control
[3] = target: Ephrin type-A receptor 4 (Homo sapiens) (UniProt P54764); assay: Inhibition of human EPHA4 at 18.6 nM by HotSpot assay relative to control
[4] = target: Tyrosine-protein kinase Fer (Homo sapiens) (UniProt P16591); assay: Inhibition of human FER at 18.6 nM by HotSpot assay relative to control
[5] = target: Glycogen synthase kinase-3 alpha (Homo sapiens) (UniProt P49840); assay: Inhibition of human GSK3a at 18.6 nM by HotSpot assay relative to control
[6] = target: Protein kinase C eta type (Homo sapiens) (UniProt P24723); assay: Inhibition of human PKCeta at 18.6 nM by HotSpot assay relative to control
[7] = target: Insulin-like growth factor 1 receptor (Homo sapiens, UniProt P08069); conditions: dose 18.6 nM
Description: Inhibition of human IGF1R at 18.6 nM by HotSpot assay relative to control

[8] = target: Casein kinase I isoform gamma-1 (Homo sapiens) (UniProt Q9HCP0); assay: Inhibition of human CK1g1 at 500 nM by HotSpot assay relative to control
[9] = target: CDK3/Cyclin E (Homo sapiens) (UniProt P24864+Q00526); assay: Inhibition of human CDK3/cyclin E at 1.82 nM by HotSpot assay relative to control; type: protein-complex assay
[10] = target: Serine/threonine-protein kinase Chk2 (Homo sapiens) (UniProt O96017); assay: Inhibition of human CHK2 at 1.82 nM by HotSpot assay relative to control
[11] = target: Casein kinase I isoform epsilon (Homo sapiens) (UniProt P49674); assay: Inhibition of human CK1epsilon at 1.82 nM by HotSpot assay relative to control
[12] = target: Focal adhesion kinase 1 (Homo sapiens) (UniProt Q05397); assay: Inhibition of human FAK at 1.82 nM by HotSpot assay relative to control
[13] = target: Tyrosine-protein kinase Fer (Homo sapiens) (UniProt P16591); assay: Inhibition of human FER at 1.82 nM by HotSpot assay relative to control
[14] = target: T2, Serine/threonine-protein kinase Nek9 (Homo sapiens) (UniProt Q8TD19); assay: Inhibition of human NEK9 at 1.82 nM by HotSpot assay relative to control
T2 sequence (whole entry): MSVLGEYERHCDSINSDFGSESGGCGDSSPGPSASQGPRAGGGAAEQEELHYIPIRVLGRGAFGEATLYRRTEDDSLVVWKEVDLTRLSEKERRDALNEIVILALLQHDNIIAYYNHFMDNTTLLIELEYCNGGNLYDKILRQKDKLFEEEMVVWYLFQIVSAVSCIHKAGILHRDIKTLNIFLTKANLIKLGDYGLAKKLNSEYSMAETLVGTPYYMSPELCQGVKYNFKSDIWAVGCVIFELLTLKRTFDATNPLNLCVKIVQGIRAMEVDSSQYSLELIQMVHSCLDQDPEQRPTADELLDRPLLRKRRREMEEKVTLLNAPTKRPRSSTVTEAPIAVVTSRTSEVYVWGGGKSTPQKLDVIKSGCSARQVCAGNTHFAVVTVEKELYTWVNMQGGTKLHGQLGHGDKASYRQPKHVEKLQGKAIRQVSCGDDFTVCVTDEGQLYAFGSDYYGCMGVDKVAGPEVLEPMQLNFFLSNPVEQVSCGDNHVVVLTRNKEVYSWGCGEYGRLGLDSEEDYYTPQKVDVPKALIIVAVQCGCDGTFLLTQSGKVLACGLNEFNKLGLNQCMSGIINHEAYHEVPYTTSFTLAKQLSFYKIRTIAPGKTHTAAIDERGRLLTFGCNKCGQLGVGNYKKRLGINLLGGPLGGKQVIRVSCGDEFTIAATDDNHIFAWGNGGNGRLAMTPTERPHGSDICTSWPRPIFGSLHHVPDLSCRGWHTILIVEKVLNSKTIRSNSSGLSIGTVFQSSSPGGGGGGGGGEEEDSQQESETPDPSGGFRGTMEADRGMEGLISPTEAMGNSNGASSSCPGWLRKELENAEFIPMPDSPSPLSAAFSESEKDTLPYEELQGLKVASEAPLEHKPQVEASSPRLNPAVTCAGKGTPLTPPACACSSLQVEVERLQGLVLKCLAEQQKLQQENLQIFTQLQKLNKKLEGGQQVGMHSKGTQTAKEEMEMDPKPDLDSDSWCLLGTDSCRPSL

[15] = target: T3, Tyrosine-protein kinase Tec (Homo sapiens) (UniProt P42680); assay: Inhibition of human TEC at 1.82 nM by HotSpot assay relative to control
T3 sequence (whole entry): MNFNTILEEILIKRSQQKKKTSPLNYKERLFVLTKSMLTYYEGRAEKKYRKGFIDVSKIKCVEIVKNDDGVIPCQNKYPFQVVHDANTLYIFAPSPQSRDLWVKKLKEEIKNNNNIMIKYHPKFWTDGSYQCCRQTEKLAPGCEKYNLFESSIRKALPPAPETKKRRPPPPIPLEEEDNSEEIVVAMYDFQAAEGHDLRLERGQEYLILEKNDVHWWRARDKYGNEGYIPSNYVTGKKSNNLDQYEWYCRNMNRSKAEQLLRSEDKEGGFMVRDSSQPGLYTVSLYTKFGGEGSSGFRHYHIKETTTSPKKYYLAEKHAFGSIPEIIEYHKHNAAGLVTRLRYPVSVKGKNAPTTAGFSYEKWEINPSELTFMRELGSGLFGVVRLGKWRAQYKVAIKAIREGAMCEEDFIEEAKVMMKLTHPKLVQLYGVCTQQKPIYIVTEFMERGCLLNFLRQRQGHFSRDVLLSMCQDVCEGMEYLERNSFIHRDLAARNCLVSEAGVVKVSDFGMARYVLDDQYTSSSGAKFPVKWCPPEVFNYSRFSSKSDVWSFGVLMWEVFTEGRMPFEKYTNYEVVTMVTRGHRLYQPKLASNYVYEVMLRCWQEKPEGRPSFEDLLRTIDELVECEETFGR

Chain of Tyrosine-protein kinase Fer (Homo sapiens) (P16591 whole entry, looked up): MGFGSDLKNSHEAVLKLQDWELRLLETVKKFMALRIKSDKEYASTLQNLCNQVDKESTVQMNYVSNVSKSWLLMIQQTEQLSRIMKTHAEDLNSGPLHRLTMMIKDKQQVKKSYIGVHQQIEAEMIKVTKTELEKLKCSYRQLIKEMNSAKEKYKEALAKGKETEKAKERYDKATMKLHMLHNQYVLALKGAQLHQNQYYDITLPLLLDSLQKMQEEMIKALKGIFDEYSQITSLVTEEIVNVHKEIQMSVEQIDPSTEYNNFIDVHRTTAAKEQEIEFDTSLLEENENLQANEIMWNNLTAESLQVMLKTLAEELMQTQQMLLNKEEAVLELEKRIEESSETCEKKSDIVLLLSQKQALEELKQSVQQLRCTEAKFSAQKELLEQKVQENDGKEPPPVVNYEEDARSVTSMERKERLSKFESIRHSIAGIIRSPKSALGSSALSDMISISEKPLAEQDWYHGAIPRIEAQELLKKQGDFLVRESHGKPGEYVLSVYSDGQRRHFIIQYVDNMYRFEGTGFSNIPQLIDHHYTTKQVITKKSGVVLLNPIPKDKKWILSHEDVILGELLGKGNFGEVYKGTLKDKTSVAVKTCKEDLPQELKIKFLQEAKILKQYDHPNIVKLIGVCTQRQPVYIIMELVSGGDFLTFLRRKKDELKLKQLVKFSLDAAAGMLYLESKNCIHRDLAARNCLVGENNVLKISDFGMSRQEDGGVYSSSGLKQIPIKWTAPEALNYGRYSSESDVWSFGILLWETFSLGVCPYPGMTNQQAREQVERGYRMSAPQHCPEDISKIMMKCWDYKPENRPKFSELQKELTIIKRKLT
Chain of Protein kinase C eta type (Homo sapiens) (P24723 whole entry): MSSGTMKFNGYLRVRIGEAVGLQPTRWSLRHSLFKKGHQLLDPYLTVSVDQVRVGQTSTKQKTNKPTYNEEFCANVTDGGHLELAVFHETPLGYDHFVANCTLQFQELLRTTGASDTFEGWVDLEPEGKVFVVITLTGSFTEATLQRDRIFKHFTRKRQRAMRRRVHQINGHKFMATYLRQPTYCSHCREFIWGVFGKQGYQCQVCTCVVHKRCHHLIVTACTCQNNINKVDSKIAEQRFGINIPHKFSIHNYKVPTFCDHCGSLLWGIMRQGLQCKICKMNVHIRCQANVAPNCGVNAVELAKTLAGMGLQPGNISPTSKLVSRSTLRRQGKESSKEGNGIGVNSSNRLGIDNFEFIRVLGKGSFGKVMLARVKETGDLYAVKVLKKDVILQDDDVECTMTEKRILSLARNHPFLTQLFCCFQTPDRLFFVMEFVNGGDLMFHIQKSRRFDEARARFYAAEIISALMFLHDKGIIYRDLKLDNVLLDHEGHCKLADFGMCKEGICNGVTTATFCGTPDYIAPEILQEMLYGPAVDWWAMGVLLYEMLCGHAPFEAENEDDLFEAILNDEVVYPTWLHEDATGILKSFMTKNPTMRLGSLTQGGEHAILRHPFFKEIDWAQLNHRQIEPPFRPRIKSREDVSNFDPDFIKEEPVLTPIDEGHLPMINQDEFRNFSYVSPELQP
Chain of Glycogen synthase kinase-3 alpha (Homo sapiens) (P49840 2-483 limits assumed): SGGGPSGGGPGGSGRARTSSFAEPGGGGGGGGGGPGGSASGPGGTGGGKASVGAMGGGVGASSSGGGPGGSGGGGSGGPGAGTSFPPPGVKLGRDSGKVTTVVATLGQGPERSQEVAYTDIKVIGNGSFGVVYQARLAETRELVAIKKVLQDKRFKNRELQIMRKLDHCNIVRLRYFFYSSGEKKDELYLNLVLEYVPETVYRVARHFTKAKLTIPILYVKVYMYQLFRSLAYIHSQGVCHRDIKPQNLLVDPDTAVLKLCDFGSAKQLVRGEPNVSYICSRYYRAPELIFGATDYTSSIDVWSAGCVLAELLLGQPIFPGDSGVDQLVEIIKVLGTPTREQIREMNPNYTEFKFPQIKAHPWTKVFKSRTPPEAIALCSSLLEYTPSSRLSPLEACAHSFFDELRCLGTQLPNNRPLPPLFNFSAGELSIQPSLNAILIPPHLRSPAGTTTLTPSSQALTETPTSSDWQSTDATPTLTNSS
Chain of Death-associated protein kinase 2 (Homo sapiens) (Q9UIK4 whole entry, looked up): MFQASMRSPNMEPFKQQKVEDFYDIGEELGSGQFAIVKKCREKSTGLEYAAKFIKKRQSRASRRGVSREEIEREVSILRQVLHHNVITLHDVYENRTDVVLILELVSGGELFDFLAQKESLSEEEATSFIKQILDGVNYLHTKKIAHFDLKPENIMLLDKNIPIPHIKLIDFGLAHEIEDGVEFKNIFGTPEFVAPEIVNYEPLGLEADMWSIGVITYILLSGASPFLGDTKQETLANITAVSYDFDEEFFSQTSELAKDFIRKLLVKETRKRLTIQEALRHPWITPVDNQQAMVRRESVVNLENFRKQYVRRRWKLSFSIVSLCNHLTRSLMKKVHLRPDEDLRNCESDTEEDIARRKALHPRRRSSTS
Chain of Casein kinase I isoform gamma-1 (Homo sapiens) (Q9HCP0 whole entry, looked up, canonical isoform): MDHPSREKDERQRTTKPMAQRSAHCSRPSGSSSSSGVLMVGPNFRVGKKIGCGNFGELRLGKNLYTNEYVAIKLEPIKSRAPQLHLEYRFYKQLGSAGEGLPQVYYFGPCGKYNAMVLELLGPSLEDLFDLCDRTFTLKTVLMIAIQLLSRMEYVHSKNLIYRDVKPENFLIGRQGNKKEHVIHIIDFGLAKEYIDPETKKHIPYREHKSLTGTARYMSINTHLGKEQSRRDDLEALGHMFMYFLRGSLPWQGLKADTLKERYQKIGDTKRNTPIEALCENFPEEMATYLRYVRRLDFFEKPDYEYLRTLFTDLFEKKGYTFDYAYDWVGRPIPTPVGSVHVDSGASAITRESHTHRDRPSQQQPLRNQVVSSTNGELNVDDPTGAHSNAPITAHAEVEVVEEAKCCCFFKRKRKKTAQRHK
Chain of Serine/threonine-protein kinase Chk2 (Homo sapiens) (O96017 whole entry, canonical isoform): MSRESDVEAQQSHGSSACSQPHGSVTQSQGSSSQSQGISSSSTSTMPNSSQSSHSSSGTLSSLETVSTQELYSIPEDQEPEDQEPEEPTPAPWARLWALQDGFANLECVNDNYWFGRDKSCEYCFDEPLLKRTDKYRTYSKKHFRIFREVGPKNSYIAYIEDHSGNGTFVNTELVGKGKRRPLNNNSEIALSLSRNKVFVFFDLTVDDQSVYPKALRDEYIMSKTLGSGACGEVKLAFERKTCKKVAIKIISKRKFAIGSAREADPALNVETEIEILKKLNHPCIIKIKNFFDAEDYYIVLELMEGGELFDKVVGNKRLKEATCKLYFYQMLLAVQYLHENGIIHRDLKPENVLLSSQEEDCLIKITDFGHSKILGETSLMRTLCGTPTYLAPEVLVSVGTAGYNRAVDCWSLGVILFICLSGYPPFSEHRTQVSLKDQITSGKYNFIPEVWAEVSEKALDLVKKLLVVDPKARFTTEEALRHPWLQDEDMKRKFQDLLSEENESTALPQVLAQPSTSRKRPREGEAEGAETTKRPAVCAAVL
Chain of Insulin-like growth factor 1 receptor (P08069 31-736 limits assumed): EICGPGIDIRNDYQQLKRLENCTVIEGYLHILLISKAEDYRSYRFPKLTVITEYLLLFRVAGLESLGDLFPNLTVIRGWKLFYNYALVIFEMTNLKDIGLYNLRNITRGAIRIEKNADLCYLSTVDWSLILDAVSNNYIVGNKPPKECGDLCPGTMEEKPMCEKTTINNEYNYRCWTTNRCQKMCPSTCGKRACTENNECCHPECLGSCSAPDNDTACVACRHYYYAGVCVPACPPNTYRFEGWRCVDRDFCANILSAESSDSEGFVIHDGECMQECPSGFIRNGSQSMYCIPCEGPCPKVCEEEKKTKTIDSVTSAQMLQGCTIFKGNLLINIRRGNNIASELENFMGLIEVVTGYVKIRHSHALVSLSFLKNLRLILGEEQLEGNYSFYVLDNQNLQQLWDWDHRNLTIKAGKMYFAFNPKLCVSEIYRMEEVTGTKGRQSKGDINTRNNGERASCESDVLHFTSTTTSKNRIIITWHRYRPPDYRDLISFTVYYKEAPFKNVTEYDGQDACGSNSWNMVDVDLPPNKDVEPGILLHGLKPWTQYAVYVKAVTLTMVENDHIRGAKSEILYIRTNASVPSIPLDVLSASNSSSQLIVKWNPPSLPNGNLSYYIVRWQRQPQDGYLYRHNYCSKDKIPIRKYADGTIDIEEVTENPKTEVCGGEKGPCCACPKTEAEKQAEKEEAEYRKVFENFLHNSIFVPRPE
Chain of Insulin-like growth factor 1 receptor (P08069 741-1367 limits assumed): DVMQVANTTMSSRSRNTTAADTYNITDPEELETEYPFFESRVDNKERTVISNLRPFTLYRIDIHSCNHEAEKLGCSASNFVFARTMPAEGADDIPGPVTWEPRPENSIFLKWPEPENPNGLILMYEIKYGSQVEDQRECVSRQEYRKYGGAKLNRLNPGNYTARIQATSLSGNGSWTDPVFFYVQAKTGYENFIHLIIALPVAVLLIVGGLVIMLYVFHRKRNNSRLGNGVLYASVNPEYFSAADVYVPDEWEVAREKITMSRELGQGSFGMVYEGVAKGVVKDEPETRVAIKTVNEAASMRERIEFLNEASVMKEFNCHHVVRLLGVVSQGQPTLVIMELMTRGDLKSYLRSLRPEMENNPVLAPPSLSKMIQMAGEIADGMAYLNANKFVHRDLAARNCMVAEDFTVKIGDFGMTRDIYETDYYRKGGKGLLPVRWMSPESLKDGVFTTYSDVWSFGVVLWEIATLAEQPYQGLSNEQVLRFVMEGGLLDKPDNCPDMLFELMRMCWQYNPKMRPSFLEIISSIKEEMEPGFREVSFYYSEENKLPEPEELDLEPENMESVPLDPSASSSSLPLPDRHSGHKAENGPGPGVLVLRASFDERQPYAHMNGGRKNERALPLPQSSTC

C[C@]1(O)C[C@@H](c2nc(-c3ccc4ccc(-c5ccccc5)nc4c3)c3c(N)nccn32)C1
inhibition [1]: -7.85% | inhibition [2]: 0.74% | inhibition [3]: -8.39% | inhibition [4]: -4.79% | inhibition [5]: -3.5% | inhibition [6]: 1.29% | inhibition [7]: 66.3%

Nc1n[nH]c2nnc(-c3c(-c4ccccc4)nn4ccccc34)cc12
inhibition [8]: -3.88%

C[C@@]1(C(=O)Nc2ccc(F)nc2)CCCN1c1nc(Nc2cc(C3CC3)n[nH]2)c2cccn2n1
inhibition [9]: 0.42% | inhibition [10]: 0.29% | inhibition [11]: 1.26% | inhibition [12]: 1.65% | inhibition [13]: -2.54% | inhibition [14]: -1.18% | inhibition [15]: -3.36%
